Experimental data from patent US20190380937A1, “PROCESS FOR DEPIGMENTING KERATIN MATERIALS USING THIOPYRIDINONE COMPOUNDS” (L'OREAL, priority 2015, published 2019).
Where two headings read alike, the source gives them in different places.

Experiments:
normal human melanocytes = experiment: Depigmenting activity (reduction of melanin production) in normal human melanocytes in vitro; assay type: cell-based; conditions: Melanocyte, read-out: IC50 (concentration at which 50% decrease in melanin synthesis is achieved)
Procedure: The measurement of the depigmenting activity (reduction of melanin production) of compounds of formula (I) was carried out by assaying normal human melanocytes in vitro as follows.
First of all, normal human melanocytes are cultured and dispensed into 384 wells. After 24 hours, the culture medium was replaced with a medium containing compounds of formula (I) to be evaluated. The cells were incubated for 72 hours before measuring the final optical density, which measures the amount of melanin produced by the melanocytes. A dose-effect is performed using a wide concentration range of the compounds evaluated. Thus, by making the concentrations and the melanin measurements correspond, it is possible to determine an IC50 in μM: concentration at which 50% decrease in melanin synthesis is achieved. The highest concentration used in the test is 200 μM.

[1] = tested on: pigmented reconstructed epidermis; experiment: Test on pigmented reconstructed epidermis samples (melanin quantified by image analysis); assay type: cell-based, human; conditions: pValue<0.05, control DMSO
Procedure: […] EP 1 878 790). The control is DMSO. The melanin was quantified by image analysis on histological slices after staining with Fontana Masson dye. Each sample of coloured epidermis is photographed over its entire length using a camera connected to a microscope. The melanin is thresholded and the number of melanin pixels is measured in each field using automated image analysis software. A non-parametric statistical test is performed in order to determine the significance of the measurements (Mann-Whitney test).
The pigmented reconstructed epidermis standard study model was published by:
Regnier M, Duval C, Galey J B, Philippe M, Lagrange A, Tuloup R, Schmidt R, Cellular and Molecular Biology, 1999, 45, 7, 969-980: “Keratinocyte-Melanocyte co-cultures and pigmented reconstructed human epidermis: models to study modulation of melanogenesis”.

[2] = Homo sapiens, another campaign, comparison with closest prior art compound of FR 2 968 661
[3] = normal human melanocytes, 72 hours incubation, optical density, highest concentration 200 μM

| SMILES | IC50 (normal human melanocytes; [2]) | depigmenting activity (melanin quantification, Mann-Whitney test) ([1]; at 300 μM) | IC50 (normal human melanocytes; [3]) | depigmenting activity (melanin quantification, Mann-Whitney test) ([1]; at 100 μM) |
| --- | --- | --- | --- | --- |
| CCOC(=O)C(C)NC(=O)c1ccc[nH]c1=S (stereo not shown) [reference compound] | 37.4 µM |  |  |  |
| CCOC(=O)CN(C)C(=O)c1ccc[nH]c1=S [Compound 4, Ethyl N-methyl-N-[(2-thioxo-1,2-dihydropyridin-3-yl)carbonyl]glycinate] |  | Significant depigmenting activity | 67.6 µM |  |
| CN(CC(=O)O)C(=O)c1ccc[nH]c1=S [Compound 2, N-methyl-N-[(2-thioxo-1,2-dihydropyridin-3-yl)carbonyl]glycine] |  |  | 5.27 µM | Significant depigmenting activity |
| O=C(O)CNC(=O)c1ccc[nH]c1=S [Compound 1, N-[(2-thioxo-1,2-dihydropyridin-3-yl)carbonyl]glycine] |  |  | 11.4 µM | Significant depigmenting activity |
| CCOC(=O)CNC(=O)c1ccc[nH]c1=S [Compound 3, Ethyl N-[(2-thioxo-1,2-dihydropyridin-3-yl)carbonyl]glycinate] | 20.8 µM | Significant depigmenting activity | 36.8 µM |  |
